Data from the NIST ThermoML archive (doi:10.1021/je049842u).

Assays:
[1] = Liquid, Closed cell (Static) method
[2] = compressibility factor (dimensionless); conditions: Gas, Burnett expansion method

[N-]=[N+]=O [nitrous oxide]
[1]
Conditions | vapor or sublimation pressure [kPa]
219.24 K | 554.7
222.28 K | 626.3
223.31 K | 652.8
227.32 K | 759.6
227.36 K | 760.6
232.37 K | 912.1
232.43 K | 915.4
237.49 K | 1092.9
242.57 K | 1294.7
247.65 K | 1521.9
252.73 K | 1777
257.8 K | 2061.8
257.87 K | 2065.4
262.9 K | 2379
262.95 K | 2381.8
267.98 K | 2730.6
268.03 K | 2734
273.08 K | 3119.9

[2]
Conditions | compressibility factor
283.5 K, 207.4 kPa | 0.9884
283.5 K, 308.1 kPa | 0.9809
283.5 K, 456.3 kPa | 0.9705
283.5 K, 672.4 kPa | 0.9554
283.5 K, 983.6 kPa | 0.9337
283.5 K, 1422.1 kPa | 0.9019
283.5 K, 2020 kPa | 0.8558
283.5 K, 2788.1 kPa | 0.7891
283.5 K, 3680.3 kPa | 0.6958
283.51 K, 170.6 kPa | 0.9917
283.51 K, 253.7 kPa | 0.9848
283.51 K, 376.3 kPa | 0.9761
283.51 K, 556.2 kPa | 0.9636
283.51 K, 816.9 kPa | 0.9456
283.51 K, 1188.9 kPa | 0.9193
283.51 K, 1705.3 kPa | 0.8809
283.51 K, 2390.6 kPa | 0.825
283.51 K, 3232.1 kPa | 0.7451
304.09 K, 194 kPa | 0.99
304.09 K, 288.7 kPa | 0.9846
304.09 K, 429.3 kPa | 0.9779
304.09 K, 635.2 kPa | 0.9666
304.09 K, 935.6 kPa | 0.9511
304.09 K, 1366.6 kPa | 0.9281
304.09 K, 1968.7 kPa | 0.8932
304.09 K, 2781.3 kPa | 0.843
304.09 K, 3812.3 kPa | 0.772
304.1 K, 204 kPa | 0.9912
304.1 K, 303.6 kPa | 0.9853
304.1 K, 450.8 kPa | 0.9772
304.1 K, 666.7 kPa | 0.9655
304.1 K, 980.2 kPa | 0.9484
304.1 K, 1428.5 kPa | 0.9233
304.1 K, 2054.5 kPa | 0.8871
304.1 K, 2893.4 kPa | 0.8347
304.1 K, 3945.6 kPa | 0.7604
314.41 K, 193.8 kPa | 0.9927
314.41 K, 288.6 kPa | 0.9878
314.41 K, 429 kPa | 0.9808
314.41 K, 635.5 kPa | 0.9706
314.41 K, 936.8 kPa | 0.9558
314.41 K, 1371.3 kPa | 0.9347
314.41 K, 1984.4 kPa | 0.9036
314.41 K, 2822.9 kPa | 0.8587
314.41 K, 3911.4 kPa | 0.7949
314.42 K, 201.1 kPa | 0.992
314.42 K, 299.5 kPa | 0.9869
314.42 K, 445.1 kPa | 0.9798
314.42 K, 659.3 kPa | 0.9696
314.42 K, 971.5 kPa | 0.9545
314.42 K, 1420.6 kPa | 0.9324
314.42 K, 2052.9 kPa | 0.9001
314.42 K, 2915.1 kPa | 0.8539
314.42 K, 4027.4 kPa | 0.7881
324.78 K, 182.9 kPa | 0.9923
324.78 K, 272.8 kPa | 0.9888
324.78 K, 406.1 kPa | 0.9831
324.78 K, 602.6 kPa | 0.9746
324.78 K, 891.4 kPa | 0.9631
324.78 K, 1309.1 kPa | 0.9449
324.78 K, 1904.7 kPa | 0.9185
324.78 K, 2731.6 kPa | 0.88
324.78 K, 3833.8 kPa | 0.8251
324.79 K, 183.9 kPa | 0.9933
324.79 K, 274.1 kPa | 0.9891
324.79 K, 407.9 kPa | 0.9833
324.79 K, 605.3 kPa | 0.9748
324.79 K, 894.5 kPa | 0.9623
324.79 K, 1313.6 kPa | 0.9441
324.79 K, 1910.8 kPa | 0.9174
324.79 K, 2740 kPa | 0.8789
324.79 K, 3845.5 kPa | 0.824
335.16 K, 175.4 kPa | 0.9949
335.16 K, 261.7 kPa | 0.9913
335.16 K, 389.8 kPa | 0.9864
335.16 K, 579.2 kPa | 0.9792
335.16 K, 857.6 kPa | 0.9686
335.16 K, 1263.2 kPa | 0.9531
335.16 K, 1845.9 kPa | 0.9304
335.16 K, 2665.8 kPa | 0.8977
335.16 K, 3777.8 kPa | 0.8498
335.18 K, 188.5 kPa | 0.9942
335.18 K, 281 kPa | 0.9902
335.18 K, 418.3 kPa | 0.9847
335.18 K, 621.3 kPa | 0.9772
335.18 K, 919.2 kPa | 0.9658
335.18 K, 1352.3 kPa | 0.9492
335.18 K, 1972.3 kPa | 0.9248
335.18 K, 2839.6 kPa | 0.8895
335.18 K, 4008.4 kPa | 0.8389
345.51 K, 185.8 kPa | 0.9943
345.51 K, 277.2 kPa | 0.991
345.51 K, 413 kPa | 0.9863
345.51 K, 613.8 kPa | 0.9794
345.51 K, 909.5 kPa | 0.9693
345.51 K, 1340.3 kPa | 0.9543
345.51 K, 1960.2 kPa | 0.9324
345.51 K, 2834.5 kPa | 0.9008
345.51 K, 4029 kPa | 0.8553
345.58 K, 184.6 kPa | 0.9943
345.58 K, 275.5 kPa | 0.9911
345.58 K, 410.4 kPa | 0.9865
345.58 K, 610.1 kPa | 0.9797
345.58 K, 903.9 kPa | 0.9697
345.58 K, 1332.3 kPa | 0.9548
345.58 K, 1949.3 kPa | 0.9332
345.58 K, 2819.4 kPa | 0.9017
345.58 K, 4008.9 kPa | 0.8565
364.36 K, 207.6 kPa | 0.9928
364.36 K, 241.7 kPa | 0.9925
364.36 K, 309.9 kPa | 0.9907
364.36 K, 360.3 kPa | 0.9889
364.36 K, 462 kPa | 0.9871
364.36 K, 536.5 kPa | 0.9843
364.36 K, 687.1 kPa | 0.9812
364.36 K, 797.5 kPa | 0.9779
364.36 K, 1018.5 kPa | 0.9723
364.36 K, 1179.8 kPa | 0.967
364.36 K, 1502.7 kPa | 0.9588
364.36 K, 1737 kPa | 0.9517
364.36 K, 2201.5 kPa | 0.9389
364.36 K, 2535.6 kPa | 0.9285
364.36 K, 3191.1 kPa | 0.9097
364.36 K, 3655.3 kPa | 0.8947
364.36 K, 4555 kPa | 0.8679
364.36 K, 5179.9 kPa | 0.8475
